As a reminder, the melting point is the temperature, or range, at which the solid turns liquid.

Regarding `O=C(Nc1cccc(-c2ccc(Cl)c(F)c2)c1)Nc1c(Cl)cc(Cl)c2ccc(O)cc12` [Example 4-19], the melting point was 241 °C (dec.).

Molecule `Cc1cc(Cl)c(NC(=O)Nc2ccc(Cl)c(C(F)(F)F)c2)c2cc(O)ccc12` [Example 1-83] returned a melting point of 254 °C.

With `O=C(Nc1c(Cl)cc(Cl)c2ccc(O)cc12)NC1CCCc2ccccc21` (stereo not drawn) [Example 4-13], the melting point was 238 °C (dec.).

`O=C(Nc1ccc(Cl)c(C(F)(F)F)c1)Nc1c(Cl)cc(Cl)c2ccc(O)cc12` [Example 1-9]: the melting point was 255 °C (dec.).

`CC(=O)c1ccc(-c2cccc(NC(=O)Nc3c(Cl)cc(Cl)c4ccc(O)cc34)c2)cc1` [Example 4-10] showed a melting point of 253 °C.

In turn, `O=C(Nc1ccc(Oc2ccc(Cl)cc2)cc1)Nc1c(Cl)cc(Cl)c2ccc(O)cc12` [Example 4-9] showed a melting point of 230 °C.

As to `COc1cccc(-c2cccc(NC(=O)Nc3c(Cl)cc(Cl)c4ccc([O-])cc34)c2)c1.[K+]`, the melting point is 206 °C (dec.).

As to `CC(=O)Nc1ccc2cccc(NC(=O)Nc3ccc(Cl)c(C(F)(F)F)c3)c2c1` [Example 9-1, N-{8-[({[4-Chloro-3-(trifluoromethyl)phenyl]amino}carbonyl)amino]-2-naphthyl}acetamide], the melting point lay within 241 to 242 °C.

Consider `CC(=O)Oc1ccc2c(Br)cc(Br)c(NC(=O)Nc3cccc(-c4ccccc4)c3)c2c1` [Example 3-2], for which the melting point was 235 °C (dec.).

Regarding `CC(C)c1ccc(NC(=O)Nc2cccc3cc(O)ccc23)cc1` [Example 1-139], the melting point stood at 207.5 °C.

As to `O=C(Nc1ccc2c(c1)C(=O)OC2)Nc1c(Cl)cc(Cl)c2ccc(O)cc12` [Example 4-35], the melting point is 290 to 291 °C (dec.).

`O=C(Nc1cccc2c1C(=O)c1ccccc1-2)Nc1c(Cl)cc(Cl)c2ccc([O-])cc12.[K+]` had a melting point of 195 °C.

The molecule `O=C(Cc1cccc2ccc(O)cc12)Nc1ccc(Cl)c(C(F)(F)F)c1` [Example 11-1, N-[4-Chloro-3-(trifluoromethyl)phenyl]-2-(7-hydroxy-1-naphthyl)acetamide] gave a melting point of 162 °C.

Take `Cc1ccc(NC(=O)Nc2c(Cl)cc(Cl)c3ccc(O)cc23)cc1F` [Example 4-42]: the melting point is 261 to 264 °C (dec.).

`CCOC(=O)c1cccc(NC(=O)Nc2c(Br)cc(Br)c3ccc(O)cc23)c1` [Example 1-17] returned a melting point of 193 to 196 °C.

`C=CCOc1ccc2cccc(NC(=O)Nc3ccc(Cl)c(C(F)(F)F)c3)c2c1` [Example 1-164]: the melting point lay within 183 to 184 °C.

Regarding `O=C(Nc1ccc(Cl)c(C(F)(F)F)c1)Nc1c(Cl)cc(CO)c2ccc(O)cc12` [Example 1-82], the melting point came to 210 °C.

Turning to `O=C(Nc1ccc2ccccc2c1)Nc1cccc2ccc(O)c(F)c12` [Example 1-53], the melting point worked out at 189 °C.

Molecule `O=C(NCc1ccc(Br)cc1)Nc1cccc2ccc(O)cc12` [Example 1-71] showed a melting point of 210 °C.

For `O=C(Nc1ccc(Cc2ccccc2)cc1)Nc1c(Cl)cc(Cl)c2ccc(O)cc12` [Example 4-14], the melting point is 230 °C (dec.).

As for `O=C(Nc1ccc(C(F)(F)F)cc1)Nc1c(Cl)cc(Cl)c2ccc(O)cc12` [Example 1-23], the melting point is 268 to 271 °C.

For the molecule `O=C(Nc1cccc(-c2ccc(C(=O)O)cc2)c1)Nc1c(Cl)cc(Cl)c2ccc(O)cc12` [Example 4-11], the melting point is 247 °C (dec.).

The molecule `O=C(Nc1ccc(N2CCOCC2)c(Cl)c1)Nc1c(Cl)cc(Cl)c2ccc([O-])cc12.[K+]` had a melting point of 188 °C.

Regarding `Nc1ccc2cccc(NC(=O)Nc3ccc(Cl)c(C(F)(F)F)c3)c2c1` [Example 1-76, N-(7-amino-naphthalen-1-yl)-N′-(4-chloro-3-trifluoromethyl-phenyl)urea], the melting point is 232 to 234 °C.

For the molecule `O=C(Nc1cccc(-c2ccc(Cl)c(F)c2)c1)Nc1c(Cl)cc(Cl)c2ccc([O-])cc12.[K+]`, the melting point is 174 °C (dec.).

For the molecule `CNc1ccc2ccc(Cl)c(NC(=O)Nc3ccc(Cl)c(C(F)(F)F)c3)c2c1` [Example 1-77], the melting point lay within 258 to 259 °C.

Molecule `COc1cccc(NC(=O)Nc2c(Br)cc(Br)c3ccc(O)cc23)c1` [Example 1-16] came in with a melting point of 213 to 216 °C.

Molecule `CN(C(=O)Nc1ccc2ccccc2c1)c1cccc2ccc(O)cc12` [Example 1-79] displayed a melting point of 215 °C.

`O=C(Nc1ccc(Cl)c(C(F)(F)F)c1)Nc1cccc2ccc(O)c(F)c12` [Example 1-34] gave a melting point of 228 °C.

The molecule `CC(C)(C)c1cc(NC(=O)Nc2c(Br)cc(Br)c3ccc(O)cc23)no1` [Example 5-1, N-(5-tert-Butyl-3-isoxazolyl)-N′-(2,4-dibromo-7-hydroxy-1-naphthyl)urea] had a melting point of 214.5 °C.

On to `CCN(CC)c1ccc(NC(=O)Nc2c(Cl)ccc3ccc(O)cc23)cc1` [Example 1-35], for which the melting point was 199.8 to 200.5 °C.

Turning to `O=C(Nc1ccc(Cl)c(C(F)(F)F)c1)Nc1c(Cl)cc(Cl)c2ccc([O-])cc12.[K+]`, the melting point was 150 °C (dec.).

In turn, `CC(=O)Oc1ccc2c(Cl)cc(Cl)c(NC(=O)Nc3cccc(-c4ccc(Cl)c(F)c4)c3)c2c1` [Example 3-5] registered a melting point of 287 °C.

Take `O=C(Nc1ccc2ccccc2c1)Nc1c(Cl)cc(Cl)c2ccc(O)cc12` [Example 1-14]: the melting point was in the range of 263 to 265 °C.

As to `O=C(Nc1ccc(Cl)c(C(F)(F)F)c1)Nc1c(Cl)ccc2ccc(O)cc12` [Example 1-8], the melting point was 260 °C (dec.).

Take `O=C(Nc1ccc2c(c1)C(=O)c1ccccc1-2)Nc1c(Cl)cc(Cl)c2ccc(O)cc12` [Example 4-36]: the melting point was 236 °C (dec.).

Molecule `CCOC(=O)c1ccc(NC(=O)Nc2c(Cl)cc(Cl)c3ccc(O)cc23)cc1` [Example 1-13] showed a melting point of 258 to 260 °C.

On to `CC(=O)Oc1ccc2c(Cl)cc(Cl)c(NC(=O)Nc3cccc(-c4ccccc4Cl)c3)c2c1` [Example 3-1, 5,7-Dichloro-8-({[(2′-chloro-1,1′-biphenyl-3-yl)amino]carbonyl}amino)-2-naphthyl acetate], for which the melting point came out at 180 °C.

As for `O=C(Nc1ccc(F)cc1)Nc1c(Br)cc(Br)c2ccc(O)cc12` [Example 1-25], the melting point is 222 to 225 °C.

For the molecule `CC(=O)Oc1ccc2c(Cl)cc(Cl)c(NC(=O)Nc3cccc(-c4ccc(C)c(Cl)c4)c3)c2c1` [Example 3-4], the melting point was found to be 260 °C.

In turn, `CCOC(=O)c1cccc(NC(=O)Nc2c(Cl)cc(Cl)c3ccc(O)cc23)c1` [Example 1-12] yielded a melting point of 234 to 236 °C.

In the case of `O=C(NCc1cccc(F)c1)Nc1c(Cl)cc(Cl)c2ccc(O)cc12` [Example 1-30], the melting point fell in the range of 225 to 228 °C.

For the molecule `O=C(Nc1cc(C(F)(F)F)ccc1Cl)Nc1c(Cl)cc(Cl)c2ccc(O)cc12` [Example 1-41], the melting point was greater than 300 °C.

In the case of `Cc1ccc(NC(=O)Nc2c(Cl)cc(Cl)c3ccc(O)cc23)cc1C` [Example 4-12], the melting point was 239 °C (dec.).

On to `Cc1ccc(NC(=O)Nc2ccc(Cl)c(C(F)(F)F)c2)c2cc(O)ccc12` [Example 1-80], for which the melting point is 237 to 238 °C.

On to `O=C(Nc1ccc(Cl)c(C(F)(F)F)c1)Nc1cccc2ccc(NCc3ccccc3)cc12` [Example 1-75], for which the melting point was 193 to 194 °C.

The molecule `COc1ccccc1NC(=O)Nc1c(Br)cc(Br)c2ccc(O)cc12` [Example 1-15] returned a melting point of 228 to 230 °C.

For the molecule `COc1ccc(CNC(=O)Nc2c(Cl)cc(Cl)c3ccc(O)cc23)cc1` [Example 1-31], the melting point fell in the range of 223 to 226 °C.

As for `COc1cccc(-c2cccc(NC(=O)Nc3c(Cl)cc(Cl)c4ccc(O)cc34)c2)c1` [Example 4-17], the melting point was 246 °C (dec.).

Regarding `O=C(Nc1ccc(F)c(C(F)(F)F)c1)Nc1ccc(Br)c2ccc(O)cc12` [Example 1-73], the melting point was 215 °C.

On to `O=C(Nc1ccc(Cl)cc1)Nc1c(Br)cc(Br)c2ccc(O)cc12` [Example 1-26], for which the melting point lay in the range of 229 to 233 °C.

With `O=C(Nc1cccc(-c2ccccc2Cl)c1)Nc1c(Cl)cc(Cl)c2ccc(O)cc12` [Example 4-3], the melting point lay within 228 to 232 °C.

Consider `O=C(Nc1ccc(Cl)c(C(F)(F)F)c1)Nc1ccc(Br)c2ccc(O)cc12` [Example 1-72], for which the melting point was found to be 211 °C.

Take `CC(=O)Oc1ccc2c(Cl)cc(Cl)c(NC(=O)Nc3ccc4c(c3)C(=O)c3ccccc3-4)c2c1` [Example 3-10]: the melting point is 213 °C (dec.).

As for `COc1cccc(NC(=O)Nc2c(Cl)cc(Cl)c3ccc(O)cc23)c1` [Example 1-11], the melting point is 223 to 226 °C.

`O=C(Nc1cccc(Cl)c1Cl)Nc1c(Cl)cc(Cl)c2ccc(O)cc12` [Example 1-39] displayed a melting point of 300 °C.

Molecule `CCCc1ccc(NC(=O)Nc2c(Cl)cc(Cl)c3ccc(O)cc23)cc1` [Example 4-1, N-(2,4-Dichloro-7-hydroxy-1-naphthyl)-N′-(4-propylphenyl)urea] had a melting point of 241 °C.

`O=C(Nc1ccc(Cl)c(C(F)(F)F)c1)Nc1c(Br)cc(Br)c2ccc(O)cc12` [Example 1-4] came in with a melting point of 242 to 243 °C.

Regarding `O=C(Nc1cccc(Cl)c1)Nc1c(Br)cc(Br)c2ccc(O)cc12` [Example 1-3], the melting point lay in the range of 242 to 243 °C.

Regarding `O=C(Nc1cccc(Cl)c1)Nc1c(Cl)cc(Cl)c2ccc(O)cc12` [Example 1-1, N-(3-Chlorophenyl)-N′-(2,4-dichloro-7-hydroxy-1-naphthyl)urea], the melting point is greater than 260 °C.

Consider `CN(C)c1ccc(NC(=O)Nc2c(Cl)cc(Cl)c3ccc(O)cc23)cc1` [Example 1-32], for which the melting point was 192 °C (dec.).

For `CS(=O)(=O)Nc1ccc2cccc(NC(=O)Nc3ccc(Cl)c(C(F)(F)F)c3)c2c1` [Example 10-1, N-{8-[({[4-Chloro-3-(trifluoromethyl)phenyl]amino}carbonyl)amino]-2-naphthyl}methanesulfonamide], the melting point is 225 to 226 °C.

On to `Cc1ccc(-c2cccc(NC(=O)Nc3c(Cl)cc(Cl)c4ccc(O)cc34)c2)cc1Cl` [Example 4-18], for which the melting point is 234 °C (dec.).

The values are drawn from patent US20040259875A1, “Amine derivatives” (priority 2001, published 2004).
